Data as given in US5202348A, “Thiarubrine antifungal agents” (The University of British Columbia, priority 1990, dated 1993).
Values after ≈ are worked out from the molar mass of the structure shown. Where two headings read alike, the source gives them in different places.

Columns and labels:
Type in all cases: cell-based
[1] = tested on: C. albicans; test: Degradation of ThD under exposure to bench cool white light (LC50 on C. albicans); details: Candida albicans
Source text: (§1) Data on degradation of Thiarubrine D (ThD) expressed as changes of concentration required to inhibit growth of C. albicans in 50% during 24 hrs. exposure (Lc50 24 hrs.).

[2] = tested on: C. albicans; test: Doses of ThD required to inhibit different numbers of C. albicans cells; details: Candida albicans, read-out: LC50 (the source's name)
[3] = tested on: Candida albicans, Aspergillus fumigatus and Cryptococcus neoformans; test: Antifungal activity (general statement); details: extremely low concentrations
[4] = tested on: P815 mastocytoma; test: LC50 (24 hrs.), doses required to inhibit growth in 50%, different method; details: Mus musculus, P815, 24 h, read-out: LC50 (24 hrs.), dose required to inhibit growth in 50%
[5] = tested on: Enterococcus faecalis; test: Minimal inhibitory concentration, agar dilution method; details: 21 h
Description: (§2) Results were obtained by agar dilution method. Mueller Hinton agar plates (pH - 7.4) with different doses of ThD were inoculated with 10^4 cfu/spot and incubated 21 hours at 34°. MIC is the lowest concentration with no growth.

[6] = tested on: Zanthomonas maltophilia; test: as above; details: 21 h; No. 15, strain 3E6
Description: as §2

[7] = tested on: Streptococcus faecalis; test: as above; details: Enterococcus faecalis, ATCC29212, 21 h; No. 2, ATCC 29212
Description: as §2

[8] = tested on: Escherichia coli; test: as above; details: ATCC25992, 21 h, read-out: Minimal Inhibitory Concentration
Description: as §2

[9] = tested on: Candida pseudotropicalis; test: as above; details: Kluyveromyces marxianus, 21 h; No. 10
Description: as §2

[10] = tested on: Staphylococcus aureus; test: as above; details: for MIC: Staphylococcus aureus, read-out: Minimal Inhibitory Concentration
Description: as §2

[11] = tested on: Enterobacter cloacoe; test: as above
Description: as §2

[12] = tested on: Klebsiella pneumoniae; test: as above; details: ATCC33495, 21 h, No. 7, ATCC 33495
Description: as §2

[13] = tested on: Acinetobacter; test: as above
Description: as §2

[14] = tested on: Pseudomonas aeruginosa; test: as above
Description: as §2

[15] = tested on: Klebsiella sp.; test: as above; details: 21 h, No. 31
Description: as §2

[16] = tested on: Listeria monocytogenes; test: as above
Description: as §2

[17] = tested on: Cryptococcus neoformans; test: as above; details: 21 h, No. 9, F548
Description: as §2

[18] = tested on: C. albicans; test: Temperature and time dependent degradation of ThD in water solution (LC50 on C. albicans); details: Candida albicans
Source text: as §1

## CC#CC1=CC=C(C#CC#CC2CO2)SS1 (centres unmarked) [Thiarubrine D]
[1]; 0 mins. exposure to bench cool white light, read-out: LC50 (24 hrs.)
  IC50: 0.007 µg/mL (≈ 0.0286 µM)
[1]; 5 mins. exposure to bench cool white light, read-out: LC50 (24 hrs.)
  IC50: 0.012 µg/mL (≈ 0.0491 µM)
[1]; 15 mins. exposure to bench cool white light, read-out: LC50 (24 hrs.)
  IC50: 0.026 µg/mL (≈ 0.106 µM)
[1]; 0.5 hrs. exposure to bench cool white light, read-out: LC50 (24 hrs.)
  IC50: 0.14 µg/mL (≈ 0.573 µM)
[1]; 24 h, read-out: LC50 (24 hrs.), 24 hrs. exposure to bench cool white light
  IC50: 5 µg/mL (≈ 20.5 µM)
[1]; read-out: LC50 (24 hrs.), 6 hrs. exposure to bench cool white light
  IC50: 5 µg/mL (≈ 20.5 µM)
[2]; cell density 10^4 /ml
  IC50: 0.007 µg/mL (≈ 0.0286 µM)
[2]; cell density 10^5 /ml
  IC50: 0.016 µg/mL (≈ 0.0655 µM)
[2]; cell density 10^6 /ml
  IC50: 0.042 µg/mL (≈ 0.172 µM)
[3]
  Antifungal activity: very high antifungal activity
[4]
  IC50: 0.085 µg/mL (≈ 0.348 µM)
[5]; No. 30, strain 1A3
  MIC: 10 µg/mL (≈ 40.9 µM)
[5]; No. 35, strain 207
  MIC: 1 µg/mL (≈ 4.09 µM)
[6]
  MIC: 10 µg/mL (≈ 40.9 µM)
[7]
  MIC: 10 µg/mL (≈ 40.9 µM)
[8]
  MIC: 1 µg/mL (≈ 4.09 µM)
[9]
  MIC: 10 µg/mL (≈ 40.9 µM)
[10]; No. 16, strain B4287 (metacylliu res.)
  Minimal Inhibitory Concentration: 10,000 ng/ml
[10]; 21 h
  MIC: 10 µg/mL (≈ 40.9 µM)
[10]; ATCC25923, 21 h, No. 1, ATCC 25923
  MIC: 10 µg/mL (≈ 40.9 µM)
[10]; ATCC29213, 21 h, No. 5, ATCC 29213
  MIC: 10 µg/mL (≈ 40.9 µM)
[11]; Enterobacter, 21 h, No. 19, strain 1A5
  MIC: 1 µg/mL (≈ 4.09 µM)
[11]; No. 20, strain 9E5
  Minimal Inhibitory Concentration: 1,000 ng/ml
[12]
  MIC: 10 µg/mL (≈ 40.9 µM)
[13]; Acinetobacter, 21 h, No. 17, strain C42
  MIC: 1 µg/mL (≈ 4.09 µM)
[13]; No. 18, strain 6C10
  Minimal Inhibitory Concentration: 1,000 ng/ml
[14]; 21 h, No. 12, strain 141
  MIC: > 10 µg/mL
[14]; 21 h, No. 13, strain 205
  MIC: > 10 µg/mL
[14]; 21 h, No. 14, strain 3E5
  MIC: 10 µg/mL (≈ 40.9 µM)
[14]; ATCC27853, 21 h, No. 4, ATCC 27853
  MIC: 10 µg/mL (≈ 40.9 µM)
[15]
  MIC: 1 µg/mL (≈ 4.09 µM)
[16]; Listeria monocytogenes, 21 h, No. 28, strain 106
  MIC: 10 µg/mL (≈ 40.9 µM)
[16]; No. 29, strain 301
  Minimal Inhibitory Concentration: 10,000 ng/ml
[17]
  MIC: 0.064 µg/mL (≈ 0.262 µM)
[18]; 0 hrs., 37° C., read-out: LC50 24 Hrs.
  IC50: 0.007 µg/mL (≈ 0.0286 µM)
[18]; 0 hrs., room temperature, read-out: LC50 24 Hrs.
  IC50: 0.007 µg/mL (≈ 0.0286 µM)
[18]; 0.5 hrs., 37° C., read-out: LC50 24 Hrs.
  IC50: 0.02 µg/mL (≈ 0.0819 µM)
[18]; 0.5 hrs., room temperature, read-out: LC50 24 Hrs.
  IC50: 0.016 µg/mL (≈ 0.0655 µM)
[18]; 2 hrs., 37° C., read-out: LC50 24 Hrs.
  IC50: 0.033 µg/mL (≈ 0.135 µM)
[18]; 2 hrs., room temperature, read-out: LC50 24 Hrs.
  IC50: 0.022 µg/mL (≈ 0.09 µM)
[18]; 6 hrs., 37° C., read-out: LC50 24 Hrs.
  IC50: 0.085 µg/mL (≈ 0.348 µM)
[18]; 6 hrs., room temperature, read-out: LC50 24 Hrs.
  IC50: 0.042 µg/mL (≈ 0.172 µM)
[18]; 24 h, 37° C.
  IC50: 0.21 µg/mL (≈ 0.859 µM)
[18]; 24 h, room temperature
  IC50: 0.11 µg/mL (≈ 0.45 µM)
